Source: PubChem BioAssay (NCI)
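Where inhibition never reached the appropriate level, the endpoint shown equals the highest concentration tested. Otherwise, values were interpolated linearly from a five-concentration, 48-hour dose response in 96-well plates. The concentration for full growth arrest is given as TGI.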

Tests used:
Test in all cases: NCI-60 cell line screen, 48 h
[1] = system: MALME-3M melanoma
[2] = system: HS 578T breast
[3] = system: MOLT-4 leukemia
[4] = system: OVCAR-8 ovarian
[5] = system: SF-268 CNS
[6] = system: HOP-62 NSCLC
[7] = system: NCI-H460 lung
[8] = system: HOP-92 NSCLC
[9] = system: UACC-257 melanoma
[10] = system: T-47D breast
[11] = system: NCI/ADR-RES ovarian
[12] = system: MDA-N
[13] = system: CAKI-1 renal
[14] = system: SNB-19 CNS
[15] = system: SK-OV-3 ovarian
[16] = system: NCI-H522 lung
[17] = system: ACHN renal
[18] = system: IGROV1 ovarian
[19] = system: UO-31 renal
[20] = system: OVCAR-5 ovarian
[21] = system: HCT-15 colon
[22] = system: OVCAR-3 ovarian
[23] = system: HCT-116 colon
[24] = system: SK-MEL-28 melanoma
[25] = system: OVCAR-4 ovarian
[26] = system: HL-60(TB) leukemia
[27] = system: MCF7 breast
[28] = system: SK-MEL-2 melanoma
[29] = system: KM12 colon
[30] = system: SN12C renal
[31] = system: SF-539 CNS
[32] = system: K-562 leukemia
[33] = system: SF-295 CNS
[34] = system: RXF 393 renal
[35] = system: NCI-H23 lung
[36] = system: DU-145 prostate
[37] = system: SNB-75 CNS
[38] = system: HT29 colon
[39] = system: MDA-MB-231 breast
[40] = system: RPMI-8226 leukemia
[41] = system: A498 renal
[42] = system: TK-10 renal
[43] = system: LOX IMVI melanoma
[44] = system: EKVX NSCLC
[45] = system: U251 CNS
[46] = system: COLO 205 colon
[47] = system: MDA-MB-435
[48] = system: 786-0 renal
[49] = system: HCC-2998 colon
[50] = system: NCI-H226 lung
[51] = system: A549 NSCLC
[52] = system: SR leukemia
[53] = system: CCRF-CEM leukemia
[54] = system: SW-620 colon
[55] = system: PC-3 prostate
[56] = system: M14 melanoma
[57] = system: SK-MEL-5 melanoma
[58] = system: UACC-62 melanoma

COC(=O)c1cc(CC2Cc3cc4c(cc3C2)CCC4)cc2c1CCC2
TGI [1]: > 100 µM | TGI [2]: > 100 µM | TGI [3]: 55.7 µM | TGI [4]: > 100 µM | TGI [5]: > 100 µM | TGI [6]: > 100 µM | TGI [7]: > 100 µM | TGI [8]: > 100 µM | TGI [9]: > 100 µM | TGI [10]: > 100 µM | TGI [11]: > 100 µM | TGI [12]: > 100 µM | TGI [13]: > 100 µM | TGI [14]: > 100 µM | TGI [15]: > 100 µM | TGI [16]: > 100 µM | TGI [17]: > 100 µM | TGI [18]: > 100 µM | TGI [19]: > 100 µM | TGI [20]: > 100 µM | TGI [21]: > 100 µM | TGI [22]: > 100 µM | TGI [23]: > 100 µM | TGI [24]: > 100 µM | TGI [25]: > 100 µM | TGI [26]: > 100 µM | TGI [27]: > 100 µM | TGI [28]: > 100 µM | TGI [29]: > 100 µM | TGI [30]: > 100 µM | TGI [31]: > 100 µM | TGI [32]: > 100 µM | TGI [33]: > 100 µM | TGI [34]: > 100 µM | TGI [35]: > 100 µM | TGI [36]: > 100 µM | TGI [37]: > 100 µM | TGI [38]: > 100 µM | TGI [39]: > 100 µM | TGI [40]: > 100 µM | TGI [41]: > 100 µM | TGI [42]: > 100 µM | TGI [43]: > 100 µM | TGI [44]: > 100 µM | TGI [45]: > 100 µM | TGI [46]: > 100 µM | TGI [47]: > 100 µM | TGI [48]: > 100 µM | TGI [49]: > 100 µM | TGI [50]: > 100 µM | TGI [51]: > 100 µM | TGI [52]: 94 µM | TGI [53]: > 100 µM | TGI [54]: > 100 µM | TGI [55]: > 100 µM | TGI [56]: > 100 µM | TGI [57]: > 100 µM

Cc1cc(C23OC4COC(C)(C)OC4C2OC(C)(C)O3)nc2ccccc12 (stereo not drawn)
TGI [1]: > 100 µM | TGI [2]: > 100 µM | TGI [3]: > 100 µM | TGI [4]: > 100 µM | TGI [5]: > 100 µM | TGI [6]: > 100 µM | TGI [7]: > 100 µM | TGI [8]: > 100 µM | TGI [9]: > 100 µM | TGI [10]: > 100 µM | TGI [11]: > 100 µM | TGI [12]: > 100 µM | TGI [14]: > 100 µM | TGI [15]: > 100 µM | TGI [16]: > 100 µM | TGI [17]: > 100 µM | TGI [18]: > 100 µM | TGI [19]: > 100 µM | TGI [20]: > 100 µM | TGI [21]: > 100 µM | TGI [22]: > 100 µM | TGI [58]: > 100 µM | TGI [23]: > 100 µM | TGI [24]: > 100 µM | TGI [25]: > 100 µM | TGI [26]: > 100 µM | TGI [27]: > 100 µM | TGI [28]: > 100 µM | TGI [29]: > 100 µM | TGI [30]: > 100 µM | TGI [31]: > 100 µM | TGI [32]: > 100 µM | TGI [33]: > 100 µM | TGI [34]: > 100 µM | TGI [35]: > 100 µM | TGI [36]: > 100 µM | TGI [37]: > 100 µM | TGI [38]: > 100 µM | TGI [39]: > 100 µM | TGI [40]: > 100 µM | TGI [42]: > 100 µM | TGI [43]: > 100 µM | TGI [44]: > 100 µM | TGI [45]: > 100 µM | TGI [46]: > 100 µM | TGI [47]: > 100 µM | TGI [48]: > 100 µM | TGI [49]: > 100 µM | TGI [50]: > 100 µM | TGI [51]: > 100 µM | TGI [52]: > 100 µM | TGI [53]: > 100 µM | TGI [54]: > 100 µM | TGI [55]: > 100 µM | TGI [56]: > 100 µM | TGI [57]: > 100 µM
